Patent publication US20170258943A1, “Using Heavy Water as a Contrast Agent for Hydrogen Magnetic Resonance Imaging” (National Tsing Hua University, priority 2014, published 2017)

Assays:
[1] = amount of injected D2O less than 20% of body weight; cited from earlier work
[2] = T1 and T2 relaxation rates of H in D2O concentration phantom; assay type: physicochemical; conditions: FIG. 1A
Method: The R1 and R2 in the vertical axis are the relaxation rates of T1 and T2 relaxation, respectively.
In an experimental phantom with D2O concentration as c, respective concentrations of H2O, HDO, and D2O are (1-c)^2, 2c(1-c), and c^2, where a part of c of H is replaced by D. Population ratio of H coupled H and D coupled H is calculated as (1-c):c. The observed T1 and T2 relaxation rates are the population weighted sums of all H. Since the D coupled H has slower relaxation rates than H coupled H, we observe linear relations of R1 and R2 as changing the D2O concentration c in FIG. 1A and FIG. 1B.

[3] = Dynamic H MRI of rat brain after intravenous injection of contrast agent; assay type: in vivo, Sprague-Dawley rats; conditions: whole brain ROI, 1.5 mL D2O into tail vein (about 0.6% of body weight), 4.7 T
Method: Please refer to FIG. 2A and FIG. 2B, which are views showing consecutive MRI images and a curve of signal change. As shown in the figures, 6 normal adult Sprague-Dawley rats (˜200-310 g) are used. Each rat is anesthetized with 1.5% isoflurane/air via a nose cone with respiratory monitoring. Tail vein catheterization is performed with a 0.8-m long polyethylene tube connected to a 23-gaude needle, where a dead volume in a catheter is about 0.2 ml. On operating, 1.5 mL of D2O (99.8%, Cambridge Isotope, Woburn, Mass.) is manually injected into tail vein. After injecting, the catheter is flushed with 0.5 mL 0.9% NaCl solution. For comparison, an additional 0.2 mL Gd-DTPA (Magnevist) is manually injected into tail vein while D2O scanning is completed after 10 min. After injection, the catheter is flushed with 0.5 mL 0.9% NaCl solution. In vivo brain imaging is performed in prone position. All images are acquired on a 4.7 animal MRI scanner (Bruker Biospec 47/40). The parameters for the dynamic images are as follow: TR/TE/θ=1000 ms/30 ms/90 degree, FOV=2.9 cm, matrix size=128×128, and slice thickness=1 mm. Averaged signals from whole brain are portrayed as a signal-intensity curve. For comparison, the signal-intensity curve is transferred into a percentage change curve according to the following formula: Therein, S(t) is a signal at time t and S0 is a signal before using the contrast agent. […]

[4] = patients having kidney diseases; cited from earlier work

T1 relaxation rate (R1) of H versus D2O concentration [2] | SMILES | toxicity to animals [1] | signal change [3] [%] | nephrogenic systemic fibrosis (NSF) [4]
linearly decreased | [2H]O[2H] [D2O, deuterium oxide] | not toxic | 10 | 
 | O=C([O-])CN(CCN(CC(=O)[O-])CC(=O)O)CCN(CC(=O)[O-])CC(=O)O.[Gd+3] [Gd-DTPA] |  |  | possible to cause nephrogenic systemic fibrosis (NSF)
